According to PubChem BioAssay AID1963868 (Molecular Pharmacology Branch, DTP, NCI, 2024):
“And” between values parts separate entries of the source, which are not always exact repeats. Identical values can stand only once.

Tested on: KRAS PDC tumor spheroids (HUVEC+MSC), viability
Assay: Anticancer human tumor 254851-301-R-J1-PDC patient-derived colon carcinoma cell line growth inhibition [KRAS2]
Settings: for viability, T/C: stronger effect = lower value
Method in brief: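 KRAS-mutant tumor cells were grown as spheroids with HUVEC endothelial cells and human MSCs as stroma. Targeted agents were tested alone and with KRAS pathway inhibitors. Doses started at or near clinical Cmax, or 10 microM, descending half-log.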

[1] = curve of first compound, second compound 0.1 µM
[2] = curve of first compound, second compound 0.316 µM
[3] = curve of first compound, second compound 1 µM
[4] = curve of first compound, second compound 3.16 µM
[5] = curve of first compound, second compound 10 µM
[6] = second compound 0.1 µM, first compound 0.0316 µM
[7] = second compound 0.1 µM, first compound 0.1 µM
[8] = second compound 0.1 µM, first compound 0.316 µM
[9] = second compound 0.1 µM, first compound 1 µM
[10] = second compound 0.1 µM, first compound 3.16 µM
[11] = second compound 0.1 µM, first compound 10 µM
[12] = second compound 0.316 µM, first compound 0.0316 µM
[13] = second compound 0.316 µM, first compound 0.1 µM
[14] = second compound 0.316 µM, first compound 0.316 µM
[15] = second compound 0.316 µM, first compound 1 µM
[16] = second compound 0.316 µM, first compound 3.16 µM
[17] = second compound 0.316 µM, first compound 10 µM
[18] = second compound 1 µM, first compound 0.0316 µM
[19] = second compound 1 µM, first compound 0.1 µM
[20] = second compound 1 µM, first compound 0.316 µM
[21] = second compound 1 µM, first compound 1 µM
[22] = second compound 1 µM, first compound 3.16 µM
[23] = second compound 1 µM, first compound 10 µM
[24] = second compound 3.16 µM, first compound 0.0316 µM
[25] = second compound 3.16 µM, first compound 0.1 µM
[26] = second compound 3.16 µM, first compound 0.316 µM
[27] = second compound 3.16 µM, first compound 1 µM
[28] = second compound 3.16 µM, first compound 3.16 µM
[29] = second compound 3.16 µM, first compound 10 µM
[30] = second compound 10 µM, first compound 0.0316 µM
[31] = second compound 10 µM, first compound 0.1 µM
[32] = second compound 10 µM, first compound 0.316 µM
[33] = second compound 10 µM, first compound 1 µM
[34] = second compound 10 µM, first compound 3.16 µM
[35] = second compound 10 µM, first compound 10 µM
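Note: spheroids exposed to compounds for seven days before readout.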
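Throughout, for viability, T/C: 100% = DMSO vehicle control luminescence of the spheroids.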

Structure (SMILES)	IC50 [1] [µM]	IC50 [2] [µM]	IC50 [3] [µM]	IC50 [4] [µM]	IC50 [5] [µM]	viability, T/C [6] [%]	viability, T/C [7] [%]	viability, T/C [8] [%]	viability, T/C [9] [%]	viability, T/C [10] [%]	viability, T/C [11] [%]	viability, T/C [12] [%]	viability, T/C [13] [%]	viability, T/C [14] [%]	viability, T/C [15] [%]	viability, T/C [16] [%]	viability, T/C [17] [%]	viability, T/C [18] [%]	viability, T/C [19] [%]	viability, T/C [20] [%]	also measured
COC(=O)c1ccc2c(C(=Nc3ccc(N(C)C(=O)CN4CCN(C)CC4)cc3)c3ccccc3)c(O)[nH]c2c1 + C=CC(=O)N1CCN(c2nc(=O)n(-c3c(C)ccnc3C(C)C)c3nc(-c4c(O)cccc4F)c(F)cc23)C(C)C1	> 10	> 10	> 10	> 10	> 10	91.1	89.7	92.3	91.8	83.5	85	89	99.9	94	89.9	84.5	85.5	90.6	91.2	84.9	viability, T/C [21]: 76.3%; viability, T/C [22]: 77.3%; viability, T/C [23]: 83.4%; viability, T/C [24]: 93%; viability, T/C [25]: 101%; viability, T/C [26]: 88.3%; viability, T/C [27]: 88.7%; viability, T/C [28]: 75%; viability, T/C [29]: 85.7%; viability, T/C [30]: 95.6%; viability, T/C [31]: 104%; viability, T/C [32]: 93.5%; viability, T/C [33]: 87.4%; viability, T/C [34]: 77.5%; viability, T/C [35]: 75.4%
COc1cc2nccc(Oc3ccc(NC(=O)C4(C(=O)Nc5ccc(F)cc5)CC4)cc3)c2cc1OC + CC1OCC2(CCN(c3cnc(Sc4ccnc(N)c4Cl)c(N)n3)CC2)C1N	9.27	9.86	6.69	> 10	6.02	100	103	95.6	112	102	46.3	98.7	112	100	90.5	84.4	48.7	85.2	92.4	91.7	viability, T/C [21]: 80.3%; viability, T/C [22]: 71.6%; viability, T/C [23]: 38.7%; viability, T/C [24]: 69.7%; viability, T/C [25]: 84.4%; viability, T/C [26]: 82.3%; viability, T/C [27]: 72.1%; viability, T/C [28]: 62.3%; viability, T/C [29]: 56.5%; viability, T/C [30]: 77.8%; viability, T/C [31]: 75.6%; viability, T/C [32]: 74.4%; viability, T/C [33]: 68.1%; viability, T/C [34]: 63.9%; viability, T/C [35]: 40.2%
COc1cc(Nc2ncc3c(n2)-c2ccc(Cl)cc2C(c2c(F)cccc2OC)=NC3)ccc1C(=O)O + C=CC(=O)N1CCN(c2nc(=O)n(-c3c(C)ccnc3C(C)C)c3nc(-c4c(O)cccc4F)c(F)cc23)C(C)C1	0.0897	0.107	0.0592	0.11	0.122	86	40	32.7	28.6	18.9	9.83	86.7	45.4	35	28.8	19.5	10.7	56.4	43.1	36.6	viability, T/C [21]: 29.3%; viability, T/C [22]: 21.4%; viability, T/C [23]: 12.3%; viability, T/C [24]: 77.6%; viability, T/C [25]: 45%; viability, T/C [26]: 39.1%; viability, T/C [27]: 29.1%; viability, T/C [28]: 19.2%; viability, T/C [29]: 13.6%; viability, T/C [30]: 93.3%; viability, T/C [31]: 47.6%; viability, T/C [32]: 38.4%; viability, T/C [33]: 32.4%; viability, T/C [34]: 22.4%; viability, T/C [35]: 17.5%
CC(C)NCC(C(=O)N1CCN(c2ncnc3c2C(C)CC3O)CC1)c1ccc(Cl)cc1 (stereo not given) + CNCc1ccccc1-c1csc(C(C)Nc2nc(C)nc3cc(OC)c(OC)cc23)c1	> 10	> 10	> 10	> 10	< 0.0316	105	99.1	93.3	92	99.1	92.1	107	111	93.4	89.5	95.6	93.5	94.8	94	80.3	viability, T/C [21]: 84.5%; viability, T/C [22]: 83.2%; viability, T/C [23]: 89.4%; viability, T/C [24]: 78.6%; viability, T/C [25]: 67.8%; viability, T/C [26]: 56%; viability, T/C [27]: 73.1%; viability, T/C [28]: 56.5%; viability, T/C [29]: 52.6%; viability, T/C [30]: 0.18%; viability, T/C [31]: 0.19%; viability, T/C [32]: 0.17%; viability, T/C [33]: 0.17%; viability, T/C [34]: 0.16%; viability, T/C [35]: 0.22%
CCNC(=O)CC1N=C(c2ccc(Cl)cc2)c2cc(OC)ccc2-n2c(C)nnc21 (stereo not given)	–	–	–	–	–	–	–	–	–	–	–	–	–	–	–	–	–	–	–	–	viability, T/C (compound 0.0316 µM): 110% [middle of 5 runs]; viability, T/C (compound 0.1 µM): 100% [middle of 5 runs]; viability, T/C (compound 0.316 µM): 90.8% [middle of 5 runs]; viability, T/C (compound 1 µM): 88.9% [middle of 5 runs]; IC50 (curve of compound): > 10 µM and 4.98 µM
